Assay results taken from patent US20040058956A1, “Pharmaceutical composition having an improved water solubility” (priority 2000, published 2004).

| melting point | Compound |
| --- | --- |
| 105 to 106 °C | Fc1ccc(/C=C/c2nc(COc3cccc(CCCn4ccnn4)c3)co2)cc1 [B3, 1-{3-[3-({2-[(E)-2-(4-fluorophenyl)ethenyl]-1,3-oxazol-4-yl}methoxy)phenyl]propyl}-1H-1,2,3-triazole] |
| 109 to 111 °C | Cc1cccc(/C=C/c2nc(COc3ccc(CCCCn4ccnc4CCO)cc3)co2)c1 [B11, 2-[1-[4-[4-[[2-[(E)-2-(3-methylphenyl)ethenyl]-1,3-oxazol-4-yl]methoxy]phenyl]butyl]-1H-imidazol-2-yl]-1-ethanol] |
| 102 to 104 °C | Cc1cccc(/C=C/c2nc(COc3ccc(CCCCn4ccnc4CC(O)CO)cc3)co2)c1 (stereo not shown) [B22, 3-(1-{4-[4-({2-[(E)-2-(3-methylpheyl)ethenyl]-1,3-oxazol-4-yl}methoxy)phenyl]butyl}-1H-imidazol-2-yl)-1,2-propanediol] |
| 102 to 104 °C | OCC(O)Cc1nccn1CCCc1cccc(OCc2coc(/C=C/c3ccc(C(F)(F)F)cc3)n2)c1 (stereo not shown) [B25, 3-[1-(3-{3-[(2-{(E)-2-[4-(trifluoromethyl)phenyl]ethenyl}-1,3-oxazol-4-yl)methoxy]phenyl}propyl)-1H-imidazol-2-yl]-1,2-propanediol] |
| 126 to 128 °C | OCC(O)Cc1nccn1CCCCc1ccc(OCc2coc(/C=C/c3ccc(F)cc3F)n2)cc1 (stereo not shown) [Reference Example B26, 3-(1-{4-[4-({2-[(E)-2-(2,4-difluorophenyl)ethenyl]-1,3-oxazol-4-yl}methoxy)phenyl]butyl}-1H-imidazol-2-yl)-1,2-propanediol] |
| 124 to 125 °C | Fc1ccc(/C=C/c2nc(COc3ccc(CCCCn4ccnn4)cc3)co2)cc1 [Reference Example B2, 1-{4-[4-({2-[(E)-2-(4-fluorophenyl)ethenyl]-1,3-oxazol-4-yl}methoxy)phenyl]butyl}-1H-1,2,3-triazole] |
| 115 to 117 °C | Fc1ccc(/C=C/c2nc(COc3ccc(CCCCn4ccnn4)cc3)co2)c(F)c1 [B7, 1-{4-[4-({2-[(E)-2-(2,4-difluorophenyl)ethenyl]-1,3-oxazol-4-yl}methoxy)phenyl]butyl}-1H-1,2,3-triazole] |
| 149 to 150 °C | OCCc1nccn1CCCCc1ccc(OCc2coc(/C=C/c3ccc(Br)cc3)n2)cc1 [B16, 2-[1-[4-[4-[[2-[(E)-2-(4-bromophenyl)ethenyl]-1,3-oxazol-4-yl]methoxy]phenyl]butyl]-1H-imidazol-2-yl]-1-ethanol] |

Second part, the molecule before the results:

| Compound | melting point |
| --- | --- |
| Fc1ccc(/C=C/c2nc(COc3cccc(CCCn4ccnn4)c3)co2)c(F)c1 [B8, 1-{3-[3-({2-[(E)-2-(2,4-difluorophenyl)ethenyl]-1,3-oxazol-4-yl}methoxy)phenyl]propyl}-1H-1,2,3-triazole] | 89 to 90 °C |
| FC(F)(F)c1ccc(/C=C/c2nc(COc3ccc(CCCn4ccnn4)cc3)co2)cc1 [B5, 1-(3-{4-[(2-{(E)-2-[4-(trifluoromethyl)phenyl]ethenyl}-1,3-oxazol-4-yl)methoxy]phenyl}propyl)-1H-1,2,3-triazole] | 157 to 158 °C |
| OCC(O)Cc1nccn1CCCCc1ccc(OCc2coc(/C=C/c3ccc(F)cc3)n2)cc1 (stereo not shown) [B23, 3-(1-{4-[4-({2-[(E)-2-(4-fluorophenyl)ethenyl]-1,3-oxazol-4-yl}methoxy)phenyl]butyl}-1H-imidazol-2-yl)-1,2-propanediol] | 114 to 116 °C |
| OCC(O)Cc1nccn1CCCCc1ccc(OCc2coc(/C=C/c3c(F)cccc3F)n2)cc1 (stereo not shown) [B28, 3-[1-[4-[4-[[2-[(E)-2-(2,6-difluorophenyl)ethenyl]-1,3-oxazol-4-yl]methoxy]phenyl]butyl]-1H-imidazol-2-yl]-1,2-propanediol] | 123 to 125 °C |
| OCC(O)Cc1nccn1CCCc1cccc(OCc2coc(/C=C/c3ccc(F)cc3F)n2)c1 (stereo not shown) [B27, 3-(1-{3-[3-({2-[(E)-2-(2,4-difluorophenyl)ethenyl]-1,3-oxazol-4-yl}methoxy)phenyl]propyl}1H-imidazol-2-yl)-1,2-propanediol] | 92 to 94 °C |
| Cc1ccc(/C=C/c2nc(COc3ccc(CCCCn4ccnc4CCO)cc3)co2)cc1 [B10, 2-[1-[4-[4-[[2-[(E)-2-(4-methylphenyl)ethenyl]-1,3-oxazol-4-yl]methoxy]phenyl]butyl]-1H-imidazol-2-yl]-1-ethanol] | 108 to 109 °C |
| Cc1ccccc1/C=C/c1nc(COc2ccc(CCCCn3ccnc3CCO)cc2)co1 [Reference Example B12, 2-[1-[4-[4-[[2-[(E)-2-(2-methylphenyl)ethenyl]-1,3-oxazol-4-yl]methoxy]phenyl]butyl]-1H-imidazol-2-yl]-1-ethanol] | 91 to 93 °C |
| OCCc1nccn1CCCCc1ccc(OCc2coc(/C=C/c3ccc(F)cc3F)n2)cc1 [Reference Example B19, 2-[1-[4-[4-[[2-[(E)-2-(2,4-difluorophenyl)ethenyl]-1,3-oxazol-4-yl]methoxy]phenyl]butyl]-1H-imidazol-2-yl]-1-ethanol] | 93 to 95 °C |
| OCC(O)Cc1nccn1CCCCc1ccc(OCc2coc(/C=C/c3ccc(C(F)(F)F)cc3)n2)cc1 (stereo not shown) [B24, 3-[1-(4-{4-[(2-{(E)-2-{4-(trifluoromethyl)phenyl}ethenyl}-1,3-oxazol-4-yl)methoxy]phenyl}butyl]-1H-imidazol-2-yl]-1,2-propanediol] | 142 to 143 °C |
| OCCc1nccn1CCCCc1ccc(OCc2coc(/C=C/c3ccc(F)cc3)n2)cc1 [B14, 2-(1-{4-[4-({2-[(E)-2-(4-fluorophenyl)ethenyl]-1,3-oxazol-4-yl}methoxy)phenyl]butyl}-1H-imidazol-2-yl)-1-ethanol] | 130 to 132 °C |
| OCCc1nccn1CCCCc1ccc(OCc2coc(/C=C/c3ccc(Cl)cc3)n2)cc1 [B15, 2-[1-[4-[4-[[2-[(E)-2-(4-chlorophenyl)ethenyl]-1,3-oxazol-4-yl]methoxy]phenyl]butyl]-1H-imidazol-2-yl]-1-ethanol] | 127 to 128 °C |
| FC(F)(F)c1ccc(/C=C/c2nc(COc3cccc(CCCn4ccnn4)c3)co2)cc1 [Reference Example B6, 1-(3-{3-[(2-{(E)-2-[4-(trifluoromethyl)phenyl]ethenyl}-1,3-oxazol-4-yl)methoxy]phenyl}propyl)-1H-1,2,3-triazole] | 115 to 116 °C |
| OCCc1nccn1CCCc1ccc(OCc2coc(/C=C/c3ccc(F)cc3F)n2)cc1 [B20, 2-[1-[3-[4-[[2-[(E)-2-(2,4-difluorophenyl)ethenyl]-1,3-oxazol-4-yl]methoxy]phenyl]propyl]-1H-imidazol-2-yl]-1-ehtanol] | 94 to 96 °C |
| CCc1ccc(/C=C/c2nc(COc3ccc(CCCCn4ccnc4CCO)cc3)co2)cc1 [B13, 2-[1-[4-[4-[[2-[(E)-2-(4-ethylphenyl)ethenyl]-1,3-oxazol-4-yl]methoxy]phenyl]butyl]-1H-imidazol-2-yl]-1-ethanol] | 94 to 95 °C |
